“Also recorded” adds a separate entry of the source.
Experiments:
[1] = test system: NCI-H929 multiple myeloma cells; experiment: NCI-H929 multiple myeloma xenograft, anti-CD38 antibody-attenuated IFN alpha-2b construct + lenalidomide (Example 1); format: in vivo, SCID mice; settings: IFN-alpha 0.5 mg/kg; for tumor growth / tumor volume as a function of time (in words): construct 2.5 mg/kg ip biweekly (suboptimal), lenalidomide 2.5 mg/kg or 25 mg/kg daily for 21 days ip, FIG. 1, FIG. 2; for time at which tumor growth initiated and accelerated: after commencing treatment, construct 2.5 mg/kg ip biweekly, lenalidomide 2.5 mg/kg
Method: When tumors reached an average size of 200-300 mm^3, mice were pair matched into different groups and then treated with vehicle (PBS), free-non-attenuated interferon alpha (IFN-alpha) at 0.5 mg/kg, a suboptimal dose of an anti-CD38 antibody-IFN alpha-2b-145D construct (2.5 mg/kg, molar equivalent to 0.5 mg/kg IFN; ip, biweekly, which was determined by previous in vivo efficacy studies), an isotype-matched antibody-IFN alpha-2b-145D construct (isotype matched to the anti-CD38 antibody, with no anti-CD38 specificity), lenalidomide alone (2.5 mg/kg), a combination of free-non-attenuated interferon alpha and lenalidomide, a combination of lenalidomide and a suboptimal dose of the anti-CD38 antibody-IFN alpha-2b-145D construct, or a combination of the isotype control antibody-IFN alpha-2b-145D construct and lenalidomide. The amount of the anti-CD38 antibody-attenuated IFN alpha-2b construct administered was normalized to an IFN-alpha molar equivalent of the 0.5 mg/kg of free interferon administered to the animals.

[2] = test system: H929 multiple myeloma tumor cells
Method: In this experiment, 8-12 week-old female CB.17 severe combined immunodeficient (SCID) mice were implanted with 1×10^7 H929 multiple myeloma tumor cells in 50% Matrigel® subcutaneously in the flank. Tumor volume was measured by calipers biweekly. When tumors reached an average size of 170-350 mm^3, mice were randomized and treatment commenced. An animal was terminated if the tumor grew to a volume of greater than 2000 mm^3 before the study was completed at day 60.
Ten animals were assigned to each of groups 1 to 10. Treatment may cause “partial regression” (PR) or complete regression (CR) of the tumor in an animal. In a PR response, the tumor volume was 50% or less of its Day 1 volume for three consecutive measurements during the course of the study, and equal to or greater than 13.5 mm^3 for one or more of these three measurements. In a CR response, the tumor volume was less than 13.5 mm^3 for three consecutive measurements during the study. Any animal with a CR response at the end of the study was additionally classified as a tumor free survivor (TFS).

[3] = test system: H929 tumor cells; experiment: H929 human multiple myeloma xenograft, pomalidomide study (Example 3); format: in vivo, SCID mice; settings: pomalidomide 2.5 mg/kg ip qd × 21; constructs 40 μg/dose ip biwk × 4; FIG. 5
Method: Pomalidomide, like lenalidomide, is a derivative and an analog of thalidomide with increased potency against multiple myeloma and reduced toxicity.
In brief, sixty female CB.17 SCID mice were injected with 1×10^7 H929 tumor cells subcutaneously in the right flank. […] The endpoint for the study was when tumor volume reached 2000 mm^3. Cohorts were divided as follows, as summarized in Table 6: Group 1, Vehicle (PBS); Group 2, Pomalidomide alone (2.5 mg/kg); Group 3, Anti-CD38-attenuated IFNα- (40 ug/dose); Group 4, Anti-isotype-IFNα-attenuated (40 ug/dose), Group 5, Pomalidomide (2.5 mg/kg) plus anti-CD38-attenuated IFNa (40 μg/dose); and Group 6, Pomalidomide (2.5 mg/kg) plus anti-isotype-attenuated IFNα- (40 μg/dose), Pomalidomide administration started at day 1 and ended on day 21; antibody-interferon fusion construct administration started on day 1 and ended on day 28.

[4] = Group 2: lenalidomide 25 mg/kg ip qd × 21, ten animals per group

| Compound | tumor growth / tumor volume as a function of time (in words) [1] | time at which tumor growth initiated and accelerated [1] | MTV Day 60 (Median Tumor Volume at study end) ([2]; Group 2: lenalidomide 25 mg/kg ip qd × 21) [mm^3] | (n) number of surviving animals used for MTV calculation, Day 60 [2, 4] | CR No. of Complete Regressions [2, 4] | PR No. of Partial Regressions [2, 4] | TFS No. of Tumor Free Survivors [2, 4] | tumor growth (in words) ([2]; sub-optimal dosage of construct, lenalidomide 25 mg/kg, Table 5 and FIG. 3) | tumor growth / tumor shrinkage (in words) [3] |
| --- | --- | --- | --- | --- | --- | --- | --- | --- | --- |
| Nc1cccc2c1CN(C1CCC(=O)NC1=O)C2=O (racemic) [lenalidomide, (RS)-3-(4-Amino-1-oxo 1,3-dihydro-2H-isoindol-2-yl)piperidine-2,6-dione] | delayed tumor growth relative to the vehicle control; also recorded: delayed the onset of rapid tumor growth | within two weeks to about a month | 726 | 1 | 0 | 1 | 0 | delayed tumor growth relative to vehicle control | – |
| Nc1cccc2c1C(=O)N(C1CCC(=O)NC1=O)C2=O (racemic) [Pomalidomide, (RS)-4-Amino-2-(2,6-dioxopiperidin-3-yl)isoindole-1,3-dione] | – | – | – | – | – | – | – | – | did not substantially slow tumor growth |
| interferon alpha | delayed tumor growth relative to the vehicle control | within two weeks to about a month | – | – | – | – | – | – | – |

Reference: US10232041B2, “Combination of lenalidomide and polypeptide construct, and uses thereof” (Teva Pharmaceuticals Australia Pty Ltd, priority 2014, dated 2019)
